Experimental data taken from patent publication US6914045B2, “Glycopeptide antibiotics” (Wyeth Holdings Corporation, priority 2001, dated 2005).
≈ marks a conversion by molar mass, not a printed value.

Columns and labels:
[1] = anatomic pathology (histopathology of heart and kidney) in mice; type: in vivo; details: CD-1 mice, 20 mg/kg intravenously daily for 9 days, necropsy day 10, microscopic histopathology
Procedure: Samples of tissues from necropsied mice were formalin-fixed, paraffin-embedded, sectioned, stained with hematoxylin and eosin, and examined microscopically. Histopathologic findings were recorded. These findings were subjectively graded on a scale corresponding to slight, mild, moderate, marked and severe as compared to untreated controls.

Escherichia coli = assay: in vitro antibacterial evaluation, MIC by broth dilution; type: cell-based; details: 18 hours at 35° C.
How it was run: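 MIC is the lowest antibiotic concentration (tested 64-0.06 μg/mL) preventing growth of a 5×10^5 CFU/mL inoculum. Determined by broth dilution in Mueller-Hinton II medium following NCCLS standard M7-A2.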

Streptococcus sp. = assay: as above; type: cell-based; details: broth dilution, 18 hours at 35° C.
How it was run: (§1)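 Step 1: dilute antibiotic across 64-0.06 μg/mL in Muller-Hinton II […]. Step 2: inoculate at 5×10^5 CFU/mL.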

Enterococcus sp. = assay: as above; type: cell-based; details: broth dilution, 18 hours at 35° C.
How it was run: as §1

Staphylococcus sp. = assay: as above; type: cell-based; details: broth dilution, 18 hours at 35° C.; for MIC Staphylococcus aureus (ATCC 29213): strain ATCC 29213; for MIC Staphylococcus aureus (GC 1131): strain GC 1131; for MIC Staphylococcus aureus (GC 3051): strain GC 3051; for MIC Staphylococcus aureus (GC 3053): strain GC 3053; for MIC Staphylococcus aureus (GC 4541): strain GC 4541; for MIC Staphylococcus aureus (GC 4542): strain GC 4542; for MIC Staphylococcus aureus-SMITH (GC 4543): strain GC 4543; for MIC Staphylococcus aureus (GC 4544): strain GC 4544; for MIC Staphylococcus aureus (GC 4545): strain GC 4545; for MIC Staphylococcus haemolyticus (GC 4546): strain GC 4546; for MIC Coagulase Negative Staphylococcus (GC 4547): strain GC 4547; for MIC Coagulase Negative Staphylococcus (GC 4548): strain GC 4548; for MIC Coagulase Negative Staphylococcus (GC 4549): strain GC 4549; for MIC Coagulase Negative Staphylococcus (GC 4551): strain GC 4551; for MIC Coagulase Negative Staphylococcus (GC 6257): strain GC 6257
How it was run: as §1

[2] = Enterococcus faecalis (ATCC 29212)
[3] = Enterococcus faecalis (GC 4552)
[4] = Enterococcus faecalis (GC 4553)
[5] = Enterococcus faecalis (GC 4554)
[6] = Enterococcus faecalis (GC 6189)

CC(c1ccccc1)C1NC(=O)CNC(=O)C(CO)NC(=O)C(C(O)C2CN(Cc3ccccc3)C(=N)N2C2OC(CO)C(O)C(O)C2O)NC(=O)C(C(O)C2CNC(=N)N2)NC(=O)C(Cc2ccc(OC3OC(CO)C(OC4OC(CO)C(O)C(O)C4O)C(O)C3O)cc2)NC1=O (stereo not drawn) [Example 59, Cyclo[glycyl-β-methylphenylalanyl-O-(4-O-hexopyranosylhexopyranosyl)tyrosyl-(2-iminoimidazolidin-4-yl)seryl-3-[1-benzyl-3-hexopyranosyl-2-iminoimidazolidin-4-yl]serylseryl]]
Anatomical Pathology (Day 10), Heart [1]: 0 | Anatomical Pathology (Day 10), Kidney [1]: 0 | MIC Escherichia coli (ATCC 25922) (Escherichia coli): >128 µg/mL | MIC Escherichia coli (GC 4559) (Escherichia coli): >128 µg/mL | MIC Escherichia coli (GC 4560) (Escherichia coli): >128 µg/mL | MIC Streptococcus agalactiae (GC 4564) (Streptococcus sp.): >128 µg/mL | MIC Streptococcus pneumoniae (ATCC 6301) (Streptococcus sp.): 128 µg/mL (≈ 92.4 µM) | MIC Streptococcus pneumoniae (GC 1894) (Streptococcus sp.): 64 µg/mL (≈ 46.2 µM) | MIC Streptococcus pneumoniae (GC 4565) (Streptococcus sp.): 128 µg/mL (≈ 92.4 µM) | MIC Streptococcus pyogenes (GC 4563) (Streptococcus sp.): >128 µg/mL | MIC Streptococcus pneumoniae (ATCC 6301) (Streptococcus sp.; strain ATCC 6301): 128 µg/mL (≈ 92.4 µM) | MIC Streptococcus pneumoniae (GC 1894) (Streptococcus sp.; strain GC 1894): 64 µg/mL (≈ 46.2 µM) | MIC Streptococcus pyogenes (GC 4563) (Streptococcus sp.; strain GC 4563): >128 µg/mL | MIC Streptococcus agalactiae (GC 4564) (Streptococcus sp.; strain GC 4564): >128 µg/mL | MIC Streptococcus pneumoniae (GC 4565) (Streptococcus sp.; strain GC 4565): 128 µg/mL (≈ 92.4 µM) | MIC Enterococcus avium (GC 4558) (Enterococcus sp.; Enterococcus avium (GC 4558)): 128 µg/mL (≈ 92.4 µM) | MIC Enterococcus faecalis (ATCC 29212) (Enterococcus sp.; [2]): >128 µg/mL | MIC Enterococcus faecalis (GC 4552) (Enterococcus sp.; [3]): >128 µg/mL | MIC Enterococcus faecalis (GC 4553) (Enterococcus sp.; [4]): >128 µg/mL | MIC Enterococcus faecalis (GC 4554) (Enterococcus sp.; [5]): >128 µg/mL | MIC Enterococcus faecalis (GC 6189) (Enterococcus sp.; [6]): >128 µg/mL | MIC Enterococcus faecium (GC 2243) (Enterococcus sp.; Enterococcus faecium (GC 2243)): >128 µg/mL | MIC Enterococcus faecium (GC 4556) (Enterococcus sp.; Enterococcus faecium (GC 4556)): >128 µg/mL | MIC Enterococcus faecium (GC 4557) (Enterococcus sp.; Enterococcus faecium (GC 4557)): 128 µg/mL (≈ 92.4 µM) | MIC Enterococcus avium (GC 4558) (Enterococcus sp.): 128 µg/mL (≈ 92.4 µM) | MIC Enterococcus faecalis (ATCC 29212) (Enterococcus sp.): >128 µg/mL | MIC Enterococcus faecalis (GC 2242) (Enterococcus sp.): >128 µg/mL | MIC Enterococcus faecalis (GC 2691) (Enterococcus sp.): >128 µg/mL | MIC Enterococcus faecalis (GC 3059) (Enterococcus sp.): >128 µg/mL | MIC Enterococcus faecalis (GC 4552) (Enterococcus sp.): >128 µg/mL | MIC Enterococcus faecalis (GC 4553) (Enterococcus sp.): >128 µg/mL | MIC Enterococcus faecalis (GC 4554) (Enterococcus sp.): >128 µg/mL | MIC Enterococcus faecalis (GC 6189) (Enterococcus sp.): >128 µg/mL | MIC Enterococcus faecium (GC 2243) (Enterococcus sp.): >128 µg/mL | MIC Enterococcus faecium (GC 4556) (Enterococcus sp.): >128 µg/mL | MIC Enterococcus faecium (GC 4557) (Enterococcus sp.): 128 µg/mL (≈ 92.4 µM) | MIC Enterococcus faecalis (GC 2242) (Enterococcus sp.; strain GC 2242): >128 µg/mL | MIC Enterococcus faecalis (GC 2691) (Enterococcus sp.; strain GC 2691): >128 µg/mL | MIC Enterococcus faecalis (GC 3059) (Enterococcus sp.; strain GC 3059): >128 µg/mL | MIC Staphylococcus aureus (ATCC 29213) (Staphylococcus sp.): >128 µg/mL | MIC Staphylococcus aureus (GC 1131) (Staphylococcus sp.): >128 µg/mL | MIC Staphylococcus aureus (GC 3051) (Staphylococcus sp.): >128 µg/mL | MIC Staphylococcus aureus (GC 3053) (Staphylococcus sp.): >128 µg/mL | MIC Staphylococcus aureus (GC 4541) (Staphylococcus sp.): >128 µg/mL | MIC Staphylococcus aureus (GC 4542) (Staphylococcus sp.): >128 µg/mL | MIC Staphylococcus aureus-SMITH (GC 4543) (Staphylococcus sp.): >128 µg/mL | MIC Staphylococcus aureus (GC 4544) (Staphylococcus sp.): >128 µg/mL | MIC Staphylococcus aureus (GC 4545) (Staphylococcus sp.): >128 µg/mL | MIC Staphylococcus haemolyticus (GC 4546) (Staphylococcus sp.): >128 µg/mL | MIC Coagulase Negative Staphylococcus (GC 4547) (Staphylococcus sp.): >128 µg/mL | MIC Coagulase Negative Staphylococcus (GC 4548) (Staphylococcus sp.): >128 µg/mL | MIC Coagulase Negative Staphylococcus (GC 4549) (Staphylococcus sp.): >128 µg/mL | MIC Coagulase Negative Staphylococcus (GC 4551) (Staphylococcus sp.): >128 µg/mL | MIC Coagulase Negative Staphylococcus (GC 6257) (Staphylococcus sp.): >128 µg/mL

CC(c1ccccc1)C1NC(=O)CNC(=O)C(CO)NC(=O)C(C(O)C2CN(Cc3ccc(C(C)(C)C)cc3)C(=N)N2C2OC(CO)C(O)C(O)C2O)NC(=O)C(C(O)C2CNC(=N)N2)NC(=O)C(Cc2ccc(OC3OC(CO)C(OC4OC(CO)C(O)C(O)C4O)C(O)C3O)cc2)NC1=O (stereo not drawn) [Example 60, Cyclo[glycyl-β-methylphenylalanyl-O-(4-O-hexopyranosylhexopyranosyl)tyrosl-(2-iminoimidazolidin-4-yl)seryl-3-[1-(4-tert-butylbenzyl)-3-hexopyranosyl-2-iminoimidazolidin-4-yl]-serylseryl]]
Anatomical Pathology (Day 10), Heart [1]: 0 | Anatomical Pathology (Day 10), Kidney [1]: 0 | MIC Escherichia coli (ATCC 25922) (Escherichia coli): >128 µg/mL | MIC Escherichia coli (GC 4559) (Escherichia coli): >128 µg/mL | MIC Escherichia coli (GC 4560) (Escherichia coli): 16 µg/mL (≈ 11.1 µM) | MIC Streptococcus agalactiae (GC 4564) (Streptococcus sp.): >128 µg/mL | MIC Streptococcus pneumoniae (ATCC 6301) (Streptococcus sp.): 128 µg/mL (≈ 88.8 µM) | MIC Streptococcus pneumoniae (GC 1894) (Streptococcus sp.): 64 µg/mL (≈ 44.4 µM) | MIC Streptococcus pneumoniae (GC 4565) (Streptococcus sp.): 128 µg/mL (≈ 88.8 µM) | MIC Streptococcus pyogenes (GC 4563) (Streptococcus sp.): >128 µg/mL | MIC Streptococcus pneumoniae (ATCC 6301) (Streptococcus sp.; strain ATCC 6301): 128 µg/mL (≈ 88.8 µM) | MIC Streptococcus pneumoniae (GC 1894) (Streptococcus sp.; strain GC 1894): 64 µg/mL (≈ 44.4 µM) | MIC Streptococcus pyogenes (GC 4563) (Streptococcus sp.; strain GC 4563): >128 µg/mL | MIC Streptococcus agalactiae (GC 4564) (Streptococcus sp.; strain GC 4564): >128 µg/mL | MIC Streptococcus pneumoniae (GC 4565) (Streptococcus sp.; strain GC 4565): 128 µg/mL (≈ 88.8 µM) | MIC Enterococcus avium (GC 4558) (Enterococcus sp.; Enterococcus avium (GC 4558)): 128 µg/mL (≈ 88.8 µM) | MIC Enterococcus faecalis (ATCC 29212) (Enterococcus sp.; [2]): >128 µg/mL | MIC Enterococcus faecalis (GC 4552) (Enterococcus sp.; [3]): >128 µg/mL | MIC Enterococcus faecalis (GC 4553) (Enterococcus sp.; [4]): 128 µg/mL (≈ 88.8 µM) | MIC Enterococcus faecalis (GC 4554) (Enterococcus sp.; [5]): >128 µg/mL | MIC Enterococcus faecalis (GC 6189) (Enterococcus sp.; [6]): >128 µg/mL | MIC Enterococcus faecium (GC 2243) (Enterococcus sp.; Enterococcus faecium (GC 2243)): >128 µg/mL | MIC Enterococcus faecium (GC 4556) (Enterococcus sp.; Enterococcus faecium (GC 4556)): >128 µg/mL | MIC Enterococcus faecium (GC 4557) (Enterococcus sp.; Enterococcus faecium (GC 4557)): 128 µg/mL (≈ 88.8 µM) | MIC Enterococcus avium (GC 4558) (Enterococcus sp.): 128 µg/mL (≈ 88.8 µM) | MIC Enterococcus faecalis (ATCC 29212) (Enterococcus sp.): >128 µg/mL | MIC Enterococcus faecalis (GC 2242) (Enterococcus sp.): >128 µg/mL | MIC Enterococcus faecalis (GC 2691) (Enterococcus sp.): >128 µg/mL | MIC Enterococcus faecalis (GC 3059) (Enterococcus sp.): >128 µg/mL | MIC Enterococcus faecalis (GC 4552) (Enterococcus sp.): >128 µg/mL | MIC Enterococcus faecalis (GC 4553) (Enterococcus sp.): 128 µg/mL (≈ 88.8 µM) | MIC Enterococcus faecalis (GC 4554) (Enterococcus sp.): >128 µg/mL | MIC Enterococcus faecalis (GC 6189) (Enterococcus sp.): >128 µg/mL | MIC Enterococcus faecium (GC 2243) (Enterococcus sp.): >128 µg/mL | MIC Enterococcus faecium (GC 4556) (Enterococcus sp.): >128 µg/mL | MIC Enterococcus faecium (GC 4557) (Enterococcus sp.): 128 µg/mL (≈ 88.8 µM) | MIC Enterococcus faecalis (GC 2242) (Enterococcus sp.; strain GC 2242): >128 µg/mL | MIC Enterococcus faecalis (GC 2691) (Enterococcus sp.; strain GC 2691): >128 µg/mL | MIC Enterococcus faecalis (GC 3059) (Enterococcus sp.; strain GC 3059): >128 µg/mL | MIC Staphylococcus aureus (ATCC 29213) (Staphylococcus sp.): >128 µg/mL | MIC Staphylococcus aureus (GC 1131) (Staphylococcus sp.): >128 µg/mL | MIC Staphylococcus aureus (GC 3051) (Staphylococcus sp.): >128 µg/mL | MIC Staphylococcus aureus (GC 3053) (Staphylococcus sp.): >128 µg/mL | MIC Staphylococcus aureus (GC 4541) (Staphylococcus sp.): >128 µg/mL | MIC Staphylococcus aureus (GC 4542) (Staphylococcus sp.): >128 µg/mL | MIC Staphylococcus aureus-SMITH (GC 4543) (Staphylococcus sp.): >128 µg/mL | MIC Staphylococcus aureus (GC 4544) (Staphylococcus sp.): >128 µg/mL | MIC Staphylococcus aureus (GC 4545) (Staphylococcus sp.): >128 µg/mL | MIC Staphylococcus haemolyticus (GC 4546) (Staphylococcus sp.): >128 µg/mL | MIC Coagulase Negative Staphylococcus (GC 4547) (Staphylococcus sp.): >128 µg/mL | MIC Coagulase Negative Staphylococcus (GC 4548) (Staphylococcus sp.): >128 µg/mL | MIC Coagulase Negative Staphylococcus (GC 4549) (Staphylococcus sp.): >128 µg/mL | MIC Coagulase Negative Staphylococcus (GC 4551) (Staphylococcus sp.): >128 µg/mL | MIC Coagulase Negative Staphylococcus (GC 6257) (Staphylococcus sp.): >128 µg/mL
